Data on seven molecules can be found in patent publication US10130615B2, “Benzomorphan analogs and the use thereof” (priority 2014, dated 2018).

In one test the target is T1, ORL-1 receptor (Homo sapiens, UniProt P41146).
T1 construct: host or cells: HEK-293
Briefly: ORL-1 receptor radioligand binding assay ([3H]-nociceptin). The note with it: HEK-293 or CHO cells; read-out: Ki (nM) Opioid Receptor ORL-1. How it is done: ORL-1 Receptor Binding Assay Procedure: Membranes from recombinant HEK-293 cells expressing the human opioid receptor-like receptor (ORL-1) (Perkin Elmer, Shelton, Conn.) were prepared by lysing cells in ice-cold hypotonic buffer (2.5 mM MgCl2, 50 mM HEPES, pH 7.4) (10 ml/10 cm dish) followed by homogenization with a tissue grinder/Teflon pestle. Membranes were collected by centrifugation at 30,000×g for 15 min at 4° C. and pellets resuspended in hypotonic buffer to a final concentration of 1-3 mg/ml. Protein concentrations were determined using the BioRad protein assay reagent with bovine serum albumen as standard. Aliquots of the ORL-1 receptor membranes were stored at −80° C.
Radioligand binding assays (screening and dose-displacement) used 0.1 nM [^3H]-nociceptin (Perkin Elmer, Shelton, Conn.; 87.7 Ci/mmole) with 12 μg membrane protein in a final volume of 500 μl binding buffer (10 mM MgCl2, 1 mM EDTA, 5% DMSO, 50 mM HEPES, pH 7.4). Non-specific binding was determined in the presence of […] unlabeled nociceptin (American Peptide Company). All reactions were performed in 96-deep well polypropylene plates for 1 h at room temperature. […] The data from screening and dose-displacement experiments were analyzed using Microsoft Excel and the curve fitting functions in GraphPad PRISM™, v. 3.0 or higher, respectively, or an in-house function for one-site competition curve-fitting.

Test [1] concerns the target T2, μ-opioid receptor (Homo sapiens, UniProt P35372). The test is described as follows: cell-based. On the set-up: purchased Perkin Elmer, Shelton, Conn. As to conditions: U2OS cells; for EC50: read-out: β-Arr2 μ EC50; for Emax: read-out: β-Arr2 μ Emax.
Test [2] concerns the target T2, μ-opioid receptor. The test is described as follows: biochemical. Set-up: purchased Perkin Elmer, Shelton, Conn; host or cells: HEK-293 or CHO. As to conditions: HEK-293 or CHO cells; for EC50: read-out: GTPγS μ EC50; for Emax: relative to DAMGO, read-out: GTPγS μ Emax.
The target of test [3] is T2, μ-opioid receptor. Briefly: μ-opioid receptor GTPγS functional assay, U2OS cells. As to conditions: for Emax: read-out: GTPγS μ Emax.
Test [4] concerns the target T3, κ-opioid receptor (Homo sapiens, UniProt P41145). Briefly: κ-opioid receptor GTPγS functional assay, U2OS cells. The note with it: U2OS cells; for EC50: read-out: GTPγS κ EC50. On the set-up: expressed in transfected cells; host or cells: U-2 OS. The test is classed as biochemical. The method, then:
(§1) Plates were incubated for 30 min at a temperature of about 25° C. with shaking.

The target of test [5] is T3, κ-opioid receptor. The test is described as follows: κ-opioid receptor β-Arr2 activity response, U2OS cells. Set-up: expressed in transfected cells; host or cells: U-2 OS. The test is classed as cell-based. The note with it: U2OS cells; for EC50: read-out: β-Arr2 κ EC50.
In test [6] the target is T3, κ-opioid receptor. Briefly: κ-opioid receptor radioligand binding assay ([3H]-U69,593). On the set-up: expressed in transfected cells; host or cells: HEK-293. The note with it: HEK-293 or CHO cells; read-out: Ki (nM) Opioid Receptor κ. How it is done:
κ-opioid Receptor Binding Assay Procedures: Membranes from recombinant HEK-293 cells expressing the human κ opioid receptor (κ) (cloned in house) were prepared by lysing cells in ice cold hypotonic buffer (2.5 mM MgCl2, 50 mM HEPES, pH 7.4) (10 mL/10 cm dish) followed by homogenization with a tissue grinder/Teflon pestle. Membranes were collected by centrifugation at 30,000×g for 15 min at 4° C. and pellets were resuspended in hypotonic buffer to a final concentration of 1-3 mg/mL. Protein concentrations were determined using the BioRad protein assay reagent with bovine serum albumen as standard. Aliquots of κ receptor membranes were stored at −80° C.
Radioligand dose displacement assays used 0.4 nM [^3H]-U69,593 (GE Healthcare, Piscataway, N.J.; 40 Ci/mmole) with 15 μg membrane protein (recombinant κ opioid receptor expressed in HEK 293 cells; in-house prep) in a final volume of 200 μl binding buffer (5% DMSO, 50 mM Trizma base, pH 7.4). Non-specific binding was determined in the presence of 10 μM unlabeled naloxone or U69,593. All reactions were performed in 96-well polypropylene plates for 1 hr at a temperature of about 25° C.

In test [7] the target is T3, κ-opioid receptor. Briefly: κ-opioid receptor [35S]GTPγS functional assay, HEK-293 or CHO cells. The test is classed as biochemical. Set-up: expressed in transfected cells; host or cells: HEK-293. As to conditions: HEK-293 or CHO cells; for EC50: read-out: GTPγS κ EC50; for Emax: relative to U69,593. How it is done: as §1
In test [8] the target is T2, μ-opioid receptor. Briefly: μ-opioid receptor radioligand binding assay ([3H]-diprenorphine). The note with it: HEK-293 or CHO cells; read-out: Ki (nM) Opioid Receptor μ. Set-up: purchased Perkin Elmer, Shelton, Conn; host or cells: HEK-293 or CHO. The method, then:
μ-opioid Receptor Binding Assay Procedures: Radioligand dose-displacement binding assays for μ-opioid receptors used 0.3 nM [^3H]-diprenorphine (Perkin Elmer, Shelton, Conn.), with […] membrane protein/well in a final volume of 500 μl binding buffer (10 mM MgCl2, 1 mM EDTA, 5% DMSO, 50 mM HEPES, pH 7.4). Reactions were carried out in the absence or presence of increasing concentrations of unlabeled naloxone. All reactions were conducted in 96-deep well polypropylene plates for 2 hr at room temperature. […] The data were analyzed using the one-site competition curve fitting functions in GraphPad PRISM™ v. 3.0 or higher (San Diego, Calif.), or an in-house function for one-site competition curve-fitting.

T3 sequence (P41145 whole entry): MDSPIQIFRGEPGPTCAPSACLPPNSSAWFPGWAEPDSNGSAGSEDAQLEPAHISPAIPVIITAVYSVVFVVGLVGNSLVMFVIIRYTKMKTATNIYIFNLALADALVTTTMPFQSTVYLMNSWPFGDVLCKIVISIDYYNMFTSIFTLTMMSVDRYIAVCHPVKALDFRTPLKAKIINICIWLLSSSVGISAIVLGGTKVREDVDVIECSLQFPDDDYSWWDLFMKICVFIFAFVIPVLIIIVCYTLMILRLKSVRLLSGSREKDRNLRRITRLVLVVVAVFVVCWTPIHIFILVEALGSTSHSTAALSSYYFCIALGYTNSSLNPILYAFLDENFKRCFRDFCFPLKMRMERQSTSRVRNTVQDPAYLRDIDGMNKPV
T2 sequence (P35372 whole entry, species assumed): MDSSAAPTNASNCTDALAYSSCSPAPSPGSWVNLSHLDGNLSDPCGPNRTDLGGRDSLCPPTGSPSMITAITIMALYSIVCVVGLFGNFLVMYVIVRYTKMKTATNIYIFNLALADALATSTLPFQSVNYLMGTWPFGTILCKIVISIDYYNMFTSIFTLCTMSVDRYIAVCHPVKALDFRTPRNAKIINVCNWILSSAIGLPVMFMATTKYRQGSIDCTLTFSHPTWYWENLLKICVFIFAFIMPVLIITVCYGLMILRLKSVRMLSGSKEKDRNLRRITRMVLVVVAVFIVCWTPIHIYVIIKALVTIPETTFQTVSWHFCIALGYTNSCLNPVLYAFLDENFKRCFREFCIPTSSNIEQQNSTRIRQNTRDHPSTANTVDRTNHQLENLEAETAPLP
T1 sequence (P41146 whole entry): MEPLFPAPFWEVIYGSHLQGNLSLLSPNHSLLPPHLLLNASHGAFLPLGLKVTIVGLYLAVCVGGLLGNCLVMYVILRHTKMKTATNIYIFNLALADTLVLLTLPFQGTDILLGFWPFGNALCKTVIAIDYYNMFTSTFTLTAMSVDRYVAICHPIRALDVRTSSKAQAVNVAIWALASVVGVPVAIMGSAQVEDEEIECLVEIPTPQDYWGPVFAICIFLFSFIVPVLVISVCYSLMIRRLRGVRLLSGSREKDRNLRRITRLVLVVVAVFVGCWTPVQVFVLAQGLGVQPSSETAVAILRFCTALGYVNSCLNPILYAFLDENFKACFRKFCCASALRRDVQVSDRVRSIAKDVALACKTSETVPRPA

As a reminder, the Ki is a measure of affinity in units of concentration, obtained from inhibition or displacement. A word on the EC50: it is the concentration giving half of the maximal effect. One may read the Emax as the maximal effect, on the per cent scale that the assay sets. As for `C[C@H]1[C@H]2Cc3ccc(O)cc3C1(CCN[C@H]1C[C@H]3CCC[C@@H](C1)N3[C@@H]1C[C@@H]3CCCC[C@@H](C3)C1)CCN2C` [Compound 63, (2R,6R,11R)-6-(2-(((1R,3R,5S)-9-((1R,6S,8r)-bicyclo[4.3.1]decan-8-yl)-9-azabicyclo[3.3.1]nonan-3-yl)amino)-ethyl)-3,11-dimethyl-1,2,3,4,5,6-hexahydro-2,6-methanobenzo[d]azocin-8-ol], at ORL-1 receptor, the Ki was 125 ± 24.2 nM. In addition, the values for the EC50 at μ-opioid receptor [1] and on μ-opioid receptor [2] were 1.23 ± 0.31 nM and 2.43 ± 0.67 nM, respectively. In addition, the values for the Emax on μ-opioid receptor [1] and at μ-opioid receptor [2] were 21.8 ± 1.31% and 74.7 ± 2.4%, respectively.

Turning to `C[C@H]1[C@H]2Cc3ccc(O)cc3[C@]1(CCCCN[C@@H](Cc1ccccc1)C(N)=O)CCN2CC1CC1` [Compound 23, (S)-2-((4-((2R,6R,11R)-3-(cyclopropyl-methyl)-8-hydroxy-11-methyl-2,3,4,5-tetrahydro-2,6-methanobenzo[d]azocin-6(1H)-yl)butyl)amino)-3-phenyl-propanamide], the Emax at μ-opioid receptor [1] was -1.5%; at μ-opioid receptor [3], 56 ± 3.06%; at κ-opioid receptor [4], 104 ± 4.06%; at κ-opioid receptor [5] it was 30 ± 0.58%; at κ-opioid receptor [7], 99 ± 6.35%; on μ-opioid receptor [2], 1%. Moreover, the EC50 was determined as 0.28 ± 0.073 nM at μ-opioid receptor [3], 0.079 ± 0.01 nM on κ-opioid receptor [4], 0.16 ± 0.055 nM on κ-opioid receptor [5] and 1.49 ± 0.58 nM on κ-opioid receptor [7]. The Ki on κ-opioid receptor [6] was found to be 0.048 ± 0.01 nM; on μ-opioid receptor [8], 0.2 ± 0.012 nM.

Turning to `C[C@H]1[C@H]2Cc3ccc(O)cc3C1(CCN[C@H]1C[C@H]3CCC[C@@H](C1)N3CC[C@@H]1CC[C@H]3C[C@@H]1C3(C)C)CCN2C` [Compound 64, (2R,6R,11R)-6-(2-(((1R,3S,5S)-9-(2-((1S,2S,5S)-6,6-dimethylbicyclo-[3.1.1]heptan-2-yl)ethyl)-9-azabicyclo-[3.3.1]nonan-3-yl)amino)ethyl)-3,11-dimethyl-1,2,3,4,5,6-hexahydro-2,6-methanobenzo[d]azocin-8-ol], the Ki at ORL-1 receptor is 563 ± 97.5 nM. Also, on μ-opioid receptor [1], the concentration for a half-maximal effect (EC50) worked out at 7450 ± 929 nM and the Emax amounted to 51.8 ± 7.76%. In addition, at μ-opioid receptor [2], the EC50 came out at 19.6 ± 5.19 nM and the Emax came to 43.5 ± 2.96%.

As to `C[C@H]1[C@H]2Cc3ccc(O)cc3[C@]1(CCCC(N)=O)CCN2CC1CCC1` [Compound 29, 4-((2R,6R,11R)-3-(cyclobutylmethyl)-8-hydroxy-11-methyl-2,3,4,5-tetrahydro-2,6-methanobenzo[d]azocin-6(1H)-yl)butanamide], the Emax is -1.5% on μ-opioid receptor [1]; 41.3 ± 4.91% on μ-opioid receptor [3]; 108 ± 1.2% on κ-opioid receptor [4]; 45 ± 3% on κ-opioid receptor [5]; 87.7 ± 3.18% at κ-opioid receptor [7]; 1% on μ-opioid receptor [2]. Further, the EC50 at μ-opioid receptor [3] turned out to be 2.65 ± 0.89 nM; on κ-opioid receptor [4] it was 0.39 ± 0.016 nM; at κ-opioid receptor [5] it was 2.06 ± 0.32 nM; at κ-opioid receptor [7], 7.6 ± 1.67 nM. Besides, the Ki was found to be 0.12 ± 0.019 nM at κ-opioid receptor [6] and 1.82 ± 0.57 nM on μ-opioid receptor [8].

As for `COC(=O)[C@H](Cc1ccccc1)NCCCC[C@]12CCN(CC3CC3)[C@H](Cc3ccc(O)cc31)[C@@H]2C` [Compound 27], the Emax on μ-opioid receptor [1] amounted to 1%; on μ-opioid receptor [3], 22.3 ± 2.85%; at κ-opioid receptor [4], 106 ± 7.13%; on κ-opioid receptor [5], 12.7 ± 1.86%; at κ-opioid receptor [7], 61.7 ± 4.33%; on μ-opioid receptor [2], 1%. The EC50 at μ-opioid receptor [3] was found to be 0.27 ± 0.058 nM; on κ-opioid receptor [4], 0.15 ± 0.023 nM; on κ-opioid receptor [5], 0.27 ± 0.11 nM; at κ-opioid receptor [7] it was 0.6 ± 0.12 nM. For the same molecule, the inhibition constant (Ki) at κ-opioid receptor [6] was found to be 0.054 ± 0.01 nM; at μ-opioid receptor [8], 0.071 ± 0.021 nM.

Turning to `C[C@H]1[C@H]2Cc3ccc(O)cc3[C@]1(CCCC(=O)N(C)C)CCN2CC1CCC1` [Compound 28, 4-((2R,6R,11R)-3-(cyclobutylmethyl)-8-hydroxy-11-methyl-2,3,4,5-tetrahydro-2,6-methanobenzo[d]azocin-6(1H)-yl)-N,N-dimethylbutanamide], the EC50 was found to be 30.5 ± 4.44 nM at μ-opioid receptor [1]; 2.71 ± 0.67 nM at μ-opioid receptor [3]; 0.49 ± 0.016 nM at κ-opioid receptor [4]; 2.37 ± 0.62 nM on κ-opioid receptor [5]; 4.58 ± 0.38 nM on κ-opioid receptor [7]. Moreover, the Emax at μ-opioid receptor [1] came to 3.7 ± 0.49%; at μ-opioid receptor [3], 57.3 ± 6.57%; at κ-opioid receptor [4] it was 104 ± 2.85%; at κ-opioid receptor [5], 45 ± 2.08%; on κ-opioid receptor [7] it was 95.3 ± 1.45%; at μ-opioid receptor [2], 1%. For the same molecule, the results for the Ki on κ-opioid receptor [6] and at μ-opioid receptor [8] were 0.22 ± 0.056 nM and 1.45 ± 0.013 nM, respectively.

`C[C@H]1[C@H]2Cc3ccc(O)cc3[C@]1(CCNC(=O)c1ccc(C(=O)O)cc1)CCN2CC1CC1` [Compound 32, 4-((2-((2R,6R,11R)-3-(cyclopropyl-methyl)-8-hydroxy-11-methyl-2,3,4,5-tetrahydro-2,6-methanobenzo[d]azocin-6(1H)-yl)ethyl)carbamoyl)benzoic acid]: the Emax on μ-opioid receptor [1] was -1%; at μ-opioid receptor [3], 57.3 ± 5.04%; on κ-opioid receptor [4], 97.7 ± 4.67%; at κ-opioid receptor [5], 11.3 ± 1.2%; on κ-opioid receptor [7], 91.3 ± 9.94%; on μ-opioid receptor [2] it was -1%. Moreover, the EC50 at μ-opioid receptor [3] was 2.16 ± 0.38 nM; on κ-opioid receptor [4], 35.7 ± 5.29 nM; at κ-opioid receptor [5], 26.7 ± 10.5 nM; at κ-opioid receptor [7], 144 ± 25.4 nM. The figures for the inhibitory constant (Ki) at κ-opioid receptor [6] and on μ-opioid receptor [8] were 35 ± 5.97 nM and 5.62 ± 1.41 nM, respectively.
